Measured values: patent EP0293220B1, “Pharmacologically active 2-and 3-substituted (1', 5'-diaryl-3-pyrazolyl)-N-Hydroxypropanamides and method for synthesizing” (ORTHO PHARMACEUTICAL CORPORATION, priority 1987, dated 1988)
One block for each molecule: values may come before it.

How the values were obtained:
lipoxygenase = target: T1, lipoxygenase (Rattus norvegicus, UniProt P12527); test: Ex vivo arachidonic acid metabolism of rat pleural exudate cells after oral dosing, lipoxygenase products (5-HETE, leukotriene B₄); assay type: in vivo, Sprague-Dawley rats; settings: for inhibition at 30 mg/kg: 30 mpk; for ED50: oral dose, ex vivo rat pleural exudate cells, read-out: IC₅₀, p.o. Lipoxygenase
T1 construct: endogenous in cells; host or cells: pleural exudate cells of carrageenan-treated Sprague-Dawley rats
T1 sequence (P12527 1-673): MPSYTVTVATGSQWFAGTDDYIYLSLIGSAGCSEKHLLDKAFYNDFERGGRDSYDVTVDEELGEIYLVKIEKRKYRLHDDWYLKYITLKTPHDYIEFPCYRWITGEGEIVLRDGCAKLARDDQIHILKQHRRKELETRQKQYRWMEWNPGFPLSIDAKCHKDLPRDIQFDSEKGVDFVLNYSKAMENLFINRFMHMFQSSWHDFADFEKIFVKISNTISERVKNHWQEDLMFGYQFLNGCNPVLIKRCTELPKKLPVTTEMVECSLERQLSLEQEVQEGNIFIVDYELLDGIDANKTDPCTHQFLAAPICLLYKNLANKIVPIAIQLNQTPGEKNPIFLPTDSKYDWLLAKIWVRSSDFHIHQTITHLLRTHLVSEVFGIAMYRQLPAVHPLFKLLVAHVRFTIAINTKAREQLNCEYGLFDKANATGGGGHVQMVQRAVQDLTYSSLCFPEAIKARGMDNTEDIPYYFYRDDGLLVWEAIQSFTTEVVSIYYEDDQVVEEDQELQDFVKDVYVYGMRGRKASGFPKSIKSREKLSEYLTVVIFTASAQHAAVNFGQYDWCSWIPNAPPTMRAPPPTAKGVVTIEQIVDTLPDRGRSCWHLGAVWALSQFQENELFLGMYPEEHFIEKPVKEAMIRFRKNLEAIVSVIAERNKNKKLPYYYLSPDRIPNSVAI
Procedure: This assay determines the ability of orally administered compounds to inhibit arachidonic acid metabolism with rat pleural exudate cells, via the lipoxygenase and/or cyclooxygenase enzymes. Sprague-Dawley rats (250 - 275 gm) are fasted overnight. The next morning, an acute inflammatory response is induced by the intra-thoracic injection of 1 ml of 0.25% carrageenan. Three hours later the rats are dosed orally with the test compounds at a screening dose of 16.5-30 mpk. Thirty minutes to one hour later the rats are sacrificed and pleural fluid harvested. The exudate fluids are diluted 1:5 using Hanks BSS and stimulated using 10 µg/ml calcium ionophore A-23187. The reaction is stopped after 15 minutes by the addition of 25 µl of 1N HCl, and the samples are centrifuged at 1000 g to sediment the cells. The supernate is extracted and applied to a C-18 HPLC column. The arachidonic acid metabolites 12-HHT (cyclooxygenase), 5-HETE, and leukotriene B₄ (lipoxygenase) are eluted using an acetonitrile methanol gradient and detected by UV absorption at 235 and 270 nm. The percent inhibition of the arachidonic acid metabolites is indicative of the anti-inflammatory activity of the tested compound and the results of this method for several compounds of the invention are listed in Table 13. The values shown are the percent inhibition at the dose indicated except for the those cases in which the IC₅₀ value is given.

Polyarthritis = Polyarthritis induced by Mycobacterium butyricum in rats: inhibition of paw volume increase after oral dosing; assay type: in vivo, Lewis strain laboratory rats; settings: percent inhibition of paw volume increase
Procedure: Polyarthritis was induced in Lewis strain laboratory rats (weight = about 200 grams) by injection of a suspension of Mycobacterium butyricum in mineral oil into the subplantar tissue of the mammal's hind paws. On day 10 after the injection, the rats were assigned to groups, and paw volumes and body weights were recorded. Paw volumes of the contralateral, uninjected hind paw were determined by mercury plethylsmography. Per oral (p.o.) dosing began and continued for five consecutive days thereafter. On day 14 after the initial injection, approximately four hours after the final dose was administered, paw volumes and body weights were recorded and quantitated.
Anti-inflammatory activity of the N-hydroxypropanamide pyrazole compounds is expressed as the percent inhibition of paw volume increase.

[1] = rat, po, exudate cells stimulated with 10 µg/ml calcium ionophore A-23187, read-out: %INH., p.o. Lipoxygenase (mpk)

SMILES: COc1ccc(-n2nc(/C(=C/C(=O)O)c3ccccc3)cc2-c2ccc(C)cc2)cc1 [Compound 155, (E)-3-[1-(4-Methoxyphenyl)-5-(4-methylphenyl)-3-pyrazolyl]-3-phenyl-2-propenoic acid]
- %INH., p.o. (mpk) (Polyarthritis; 10 mpk): 62% @ 10

SMILES: COc1ccc(-n2nc(/C(=C/C(=O)N(C)O)c3ccc(Cl)cc3)cc2-c2ccc(C)cc2)cc1 [Compound 164]
- %INH., p.o. (mpk) (Polyarthritis; 10 mpk): 22% @ 10

SMILES: COc1ccc(-n2nc(/C(=C/C(=O)O)c3ccc(Cl)cc3)cc2-c2ccc(C)cc2)cc1 [Compound 157, (E)-3-(4-Chlorophenyl)-3-[1-(4-methoxyphenyl)-5-(4-methylphenyl)-3-pyrazolyl]propenoic acid]
- %INH., p.o. (mpk) (Polyarthritis; 10 mpk): 24% @ 10

SMILES: COc1ccc(-n2nc(C(O)c3ccc(C)cc3)cc2-c2ccc(C)cc2)cc1 (stereo not drawn) [Compound 92]
- %INH., p.o. (mpk) (Polyarthritis; 10 mpk): 27% @ 10

SMILES: COc1ccc(-n2nc(C(=O)c3ccc(Cl)cc3)cc2-c2ccc(C)cc2)cc1 [Compound 108]
- %INH., p.o. (mpk) (Polyarthritis; 10 mpk): 25% @ 10

SMILES: COc1ccc(-n2nc(C(O)c3ccc4ccccc4c3)cc2-c2ccc(C)cc2)cc1 (stereo not drawn) [Compound 94]
- %INH., p.o. (mpk) (Polyarthritis; 10 mpk): 29% @ 10

SMILES: COc1ccc(-c2cc(C(O)c3ccccc3)nn2-c2ccc(OC)cc2)cc1 (stereo not drawn) [Compound 105, [1,5-Bis(4-methoxyphenyl)-3-pyrazolyl]-1-phenylmethanol]
- %INH., p.o. (mpk) (Polyarthritis; 15 mpk): 49% @ 15

The next lines start with the values.

- inhibition at 30 mg/kg (lipoxygenase; [1]): 42%
SMILES: CCOC(=O)CC(c1cc(-c2ccc(C)cc2)n(-c2ccc(OC)cc2)n1)c1cccc2ccccc12 (stereo not drawn) [Compound 150]

- ED50 (lipoxygenase): 10 mg/kg
SMILES: COc1ccc(-n2nc(/C(=C/C(=O)N(C)O)c3ccc(F)cc3)cc2-c2ccc(C)cc2)cc1 [Compound 163, (E)-3-(4-Fluorophenyl)-N-hydroxy-3-[1-(4-methoxyphenyl)-5-(4-methylphenyl)-3-pyrazolyl]-N-methylpropenamide]

- inhibition at 30 mg/kg (lipoxygenase; [1]): 3%
SMILES: COc1ccc(-n2nc(/C(=C/C(=O)N(C)O)c3ccc(-c4ccccc4)cc3)cc2-c2ccc(C)cc2)cc1 [Compound 168]

- inhibition at 30 mg/kg (lipoxygenase; [1]): 12%
SMILES: COc1ccc(-n2nc(/C(=C\C(=O)N(C)O)c3ccc(Cl)cc3)cc2-c2ccc(C)cc2)cc1 [Compound 165]

- inhibition at 17.5 mg/kg (lipoxygenase; rat, po, 17.5 mpk, exudate cells stimulated with 10 µg/ml calcium ionophore A-23187, read-out: %INH., p.o. Lipoxygenase (mpk)): 53%
SMILES: COc1ccc(-n2nc(/C(=C\C(=O)O)c3ccc(Cl)cc3)cc2-c2ccc(C)cc2)cc1 [Compound 158, (Z)-3-(4-Chlorophenyl)-3-[1-(4-methoxyphenyl)-5-(4-methylphenyl)-3-pyrazolyl]propenoic acid]

- inhibition at 30 mg/kg (lipoxygenase; [1]): 62%
SMILES: COc1ccc(-n2nc(C(=O)c3ccc(C)cc3)cc2-c2ccc(C)cc2)cc1 [Compound 109, 1-(4-Methoxyphenyl)-3-(4-methylbenzoyl)-5-(4-methylphenyl)pyrazole]

- inhibition at 16.5 mg/kg (lipoxygenase; rat, po, 16.5 mpk, exudate cells stimulated with 10 µg/ml calcium ionophore A-23187, read-out: %INH., p.o. Lipoxygenase (mpk)): 34%
SMILES: CCOC(=O)/C=C(/c1ccc(-c2ccccc2)cc1)c1cc(-c2ccc(C)cc2)n(-c2ccc(OC)cc2)n1 [Compound 132]

- ED50 (lipoxygenase): 9 mg/kg
SMILES: CCOC(=O)/C=C(/c1ccc(C)cc1)c1cc(-c2ccc(C)cc2)n(-c2ccc(OC)cc2)n1 [Compound 125, (Z)-Ethyl 3-[1(4-methoxyphenyl)-5-(4-methylphenyl)-3-pyrazolyl]-3-(4-methylphenyl)propenoate]
